Test results published in US20230355605A1, “DRUG FOR ENHANCING FIBRINOLYTIC SYSTEM, AND USE THEREFOR” (priority 2020, published 2023).

Key:
[1] = format: physicochemical
Description: The present compound (yellowish white powder) was prepared in the following shipping packaging form and then subjected to an accelerated stability study (40° C., 75% RH, 6 months).
Inner package: A double polyethylene bag (100 × 200 mm) was filled with the present compound and sealed with a zip tie. Outer package: The double polyethylene bag filled with the present compound was placed in a fiber drum, and the fiber drum was sealed.
The present compound was stored in the above packaging form under the conditions of 40° C.12° C. and 75% RH15% RH for 6 months. At points after 1 month, 3 months, and 6 months, appearance observation, an identification test (ultraviolet spectrum, infrared absorption spectrum, flame reaction), water content analysis (water absorption), analysis of the content of the present compound, and a purity test (impurity profile) were performed to evaluate the stability of the present compound.

pregnant rats = experiment: Embryo-fetal developmental toxicity study; format: in vivo, rat; details: oral, days 7 to 17 of gestation
Description: The effect of oral administration of the present compound on embryo-fetal development was examined using rats. Specifically, the present compound was orally administered to pregnant rats from implantation to closure of the hard palate (days 7 to 17 of gestation), and the effect on the mothers, and embryos and fetuses was examined. Furthermore, the plasma concentration of the present compound after administration was measured, and its change was examined. During the study period, the general conditions of all of the animals were observed, and their body weights were measured; in the toxicity group, food consumption was measured; a Cesarean section test was performed on day 20 of gestation. Thereafter, fetal visceral and skeletal specimens were prepared, and a fetal examination was performed.

rats = experiment: 4-week repeated oral dose toxicity study in rats; format: in vivo
male Crl:CD(SD) rats = experiment: Effect on central nervous system (functional observational battery); format: in vivo, rat; details: single oral dose, up to 300 mg/kg
Description: The effect of the present compound on the central nervous system was examined by the functional observational battery (FOB) in rats, using male Crl:CD(SD) rats. Specifically, the present compound was orally administered to the rats in a single dose, and the rats were observed before administration and 0.5, 1, 2, 4, 8, and 24 hours after administration. To a control group (six rats), a 0.5 w/v% carmellose sodium aqueous solution (vehicle) was administered instead of the present compound in the same manner. […] Thus, it was considered that the present compound has no effect on the central nervous system up to a dosage of 300 mg/kg in single oral dose administration using rats.

[2] = test system: patients with COVID-19 pneumonia (mild to moderate); experiment: Effectiveness study for COVID-19 pneumonia (exploratory early phase II study); format: in vivo, human
Excerpt: The effect of the present compound to prevent the aggravation of COVID-19 pneumonia and its safety were explored.
Occurrence of transition to oxygen supply treatment under mechanical ventilation after the oral administration of the present compound (occurrence of deterioration of oxygenation)
• (a) Survival for 28 days from the start of administration of the present compound • (b) Duration of hospitalization after the start of administration of the present compound • (c) Number of days required for oxygen administration after the start of administration of the present compound (d) Changes in the proportion of lesions in the lung field on chest CT images before and after the administration of the present compound
Occurrence of adverse events after the start of administration of the present compound until the end of observation

[3] = 30, 60, 120, 250 mg/kg/day oral, 4 weeks
[4] = 120 to 180 mg/day oral, 14 days
[5] = after the start of administration, excluding undescribed and discontinued cases
[6] = start of administration to end of observation, 26 patients

O=C(Nc1ccc(Cl)cc1C(=O)[O-])c1cccc(-c2cccc3cccnc23)c1.[Na+] [present compound, sodium 5-chloro-2-({ [3-(quinolin-8-yl)phenyl]carbonyl}amino)benzoate]
period stable in the accelerated stability study ([1]; 6 months): at least 6 months
change from the state before storage (appearance, identification, water content, content, purity) ([1]; 40° C., 75% RH, after 1, 3 and 6 months, shipping packaging): no change
effect on pregnancy, embryos and fetuses (pregnant rats): no effect on maintenance of pregnancy, no embryolethal effect, no fetal growth suppressive effect, and no teratogenic effect
no-observed-adverse-effect level for embryos and fetuses (pregnant rats): 1000 mg/kg/day
no-observed-adverse-effect level for the mothers (pregnant rats): 1000 mg/kg/day
deaths during the administration period (rats; [3]): No deaths
effect on general condition, body weight, food consumption, ophthalmology, ECG, hematology, urinalysis, necropsy, organ weights (rats; [3]): No effect
no-observed-adverse-effect level (rats; rats, males and females, 4-week repeated oral dose): 250 mg/kg/day
effect on the central nervous system (male Crl:CD(SD) rats): no effect
deterioration of oxygenation requiring mechanical ventilation [2, 4]: no cases
number of days required for oxygen administration after the start of administration [2, 4]: gradually decreased
survival for 28 days from the start of administration [2, 4]: all cases survived
adverse events in patients concomitantly treated with Remdesivir, Avigan, inhaled steroid or antiplatelet agent ([2]; Remdesivir 8, Avigan 5, inhaled steroid 22, antiplatelet agent 5 cases): no adverse events requiring treatment
Number of cases with duration of hospitalization 8 to 12 days [2, 5]: 5
Number of cases with duration of hospitalization 13 to 17 days [2, 5]: 12
Number of cases with duration of hospitalization 18 to 22 days [2, 5]: 4
number of cases, oxygen dosage 0 L/day ([2]; day 1): 3
number of cases, oxygen dosage 2 or less L/day ([2]; day 1): 12
number of cases, oxygen dosage 5 or more L/day ([2]; day 1): 3
number of cases, oxygen dosage More than 2 less than 5 L/day ([2]; day 1): 5
number of cases, oxygen dosage 0 L/day ([2]; day 2): 3
number of cases, oxygen dosage 2 or less L/day ([2]; day 2): 12
number of cases, oxygen dosage 5 or more L/day ([2]; day 2): 2
number of cases, oxygen dosage More than 2 less than 5 L/day ([2]; day 2): 6
number of cases, oxygen dosage 0 L/day ([2]; day 3): 4
number of cases, oxygen dosage 2 or less L/day ([2]; day 3): 13
number of cases, oxygen dosage 5 or more L/day ([2]; day 3): 0
number of cases, oxygen dosage More than 2 less than 5 L/day ([2]; day 3): 6
number of cases, oxygen dosage 0 L/day ([2]; day 4): 7
number of cases, oxygen dosage 2 or less L/day ([2]; day 4): 11
number of cases, oxygen dosage 5 or more L/day ([2]; day 4): 0
number of cases, oxygen dosage More than 2 less than 5 L/day ([2]; day 4): 5
number of cases, oxygen dosage 0 L/day ([2]; day 5): 7
number of cases, oxygen dosage 2 or less L/day ([2]; day 5): 12
number of cases, oxygen dosage 5 or more L/day ([2]; day 5): 0
number of cases, oxygen dosage More than 2 less than 5 L/day ([2]; day 5): 4
number of cases, oxygen dosage 0 L/day ([2]; day 6): 10
number of cases, oxygen dosage 2 or less L/day ([2]; day 6): 9
number of cases, oxygen dosage 5 or more L/day ([2]; day 6): 0
number of cases, oxygen dosage More than 2 less than 5 L/day ([2]; day 6): 4
number of cases, oxygen dosage 0 L/day ([2]; day 7): 10
number of cases, oxygen dosage 2 or less L/day ([2]; day 7): 9
number of cases, oxygen dosage 5 or more L/day ([2]; day 7): 0
number of cases, oxygen dosage More than 2 less than 5 L/day ([2]; day 7): 4
number of cases, oxygen dosage 0 L/day ([2]; day 8): 12
number of cases, oxygen dosage 2 or less L/day ([2]; day 8): 10
number of cases, oxygen dosage 5 or more L/day ([2]; day 8): 0
number of cases, oxygen dosage More than 2 less than 5 L/day ([2]; day 8): 1
number of cases, oxygen dosage 0 L/day ([2]; day 9): 13
number of cases, oxygen dosage 2 or less L/day ([2]; day 9): 9
number of cases, oxygen dosage 5 or more L/day ([2]; day 9): 0
number of cases, oxygen dosage More than 2 less than 5 L/day ([2]; day 9): 1
number of cases, oxygen dosage 0 L/day ([2]; day 10): 17
number of cases, oxygen dosage 2 or less L/day ([2]; day 10): 6
number of cases, oxygen dosage 5 or more L/day ([2]; day 10): 0
number of cases, oxygen dosage More than 2 less than 5 L/day ([2]; day 10): 0
number of cases, oxygen dosage 0 L/day ([2]; day 11): 18
number of cases, oxygen dosage 2 or less L/day ([2]; day 11): 5
number of cases, oxygen dosage 5 or more L/day ([2]; day 11): 0
number of cases, oxygen dosage More than 2 less than 5 L/day ([2]; day 11): 0
number of cases, oxygen dosage 0 L/day ([2]; day 12): 20
number of cases, oxygen dosage 2 or less L/day ([2]; day 12): 3
number of cases, oxygen dosage 5 or more L/day ([2]; day 12): 0
number of cases, oxygen dosage More than 2 less than 5 L/day ([2]; day 12): 0
number of cases, oxygen dosage 0 L/day ([2]; day 13): 21
number of cases, oxygen dosage 2 or less L/day ([2]; day 13): 2
number of cases, oxygen dosage 5 or more L/day ([2]; day 13): 0
number of cases, oxygen dosage More than 2 less than 5 L/day ([2]; day 13): 0
number of cases, oxygen dosage 0 L/day ([2]; day 14): 22
number of cases, oxygen dosage 2 or less L/day ([2]; day 14): 1
number of cases, oxygen dosage 5 or more L/day ([2]; day 14): 0
number of cases, oxygen dosage More than 2 less than 5 L/day ([2]; day 14): 0
number of cases with reduced proportion of lesions in the lung field on chest CT images ([2]; out of 18 cases, administration for 14 days): 13 cases
adverse events related to the present compound and requiring treatment ([2]; start of administration to end of observation): no adverse events that were related to the present compound and that required treatment
number of adverse events [2, 6]: 33
number of patients with adverse events [2, 6]: 17 patients
